Results from patent publication US20230257315A1, “AGRICULTURE COMPOSITIONS AND AP[…] MINERAL COMPOUNDS” (Ralco Nutrition, Inc., priority 2012, published 2023).

Key:
[1] = system: corn; conditions: 5 g elemental cobalt per acre in-furrow
Text: Various cobalt compounds were applied in-furrow to natural soil with corn seeded, then grown in greenhouse conditions. The cobalt compounds were applied at a rate of 5 g elemental cobalt per acre and compared to an untreated control. The compounds included: cobalt acetate, cobalt carbonate, cobalt gluconate and cobalt sulfate. The trial consisted of four replicates in a randomized complete block design. The plants were harvested after 53 days of growth and measured for plant health characteristics and nutrient uptake.

[2] = system: field corn; assay: Cobalt lactate in-furrow with field corn, greenhouse, nutrient uptake; format: in vivo; conditions: 5 g cobalt per acre in-furrow, 53 days of growth
[3] = system: corn; assay: Greenhouse study of absorptivity of cobalt lactate into corn vegetative tissue with and without glyphosate; format: in vivo; conditions: foliar spray at V4-V6, day 6
Experimental: A greenhouse study was completed to evaluate the absorptivity of cobalt lactate into corn vegetative tissue when applied with and without glyphosate herbicide. The corn seeds were potted in natural soil and allowed to grow to the V4-V6 growth stage. At this time the plants were treated with foliar sprays of cobalt lactate, and cobalt lactate with glyphosate and ammonium sulfate (AMS). The glyphosate was commercially available and used at the recommended use rate of 1 qt per acre. The AMS was applied as described in Example 6. Six replicate vegetative portions of the plants were sampled at days 1 and 6 after the application and analyzed for cobalt content.
The initial absorption rate was slowed with the addition of glyphosate and AMS to the cobalt lactate solution.

[4] = 53 days of growth, vs untreated control

## cobalt gluconate
[1]; [4]
  increase in vegetative K concentration: 2.3%

## cobalt lactate
[2]
  increase of nitrogen within the vegetation over the untreated control: 4.6%
  increase of potassium within the vegetation over the untreated control: 7.8%
  nitrogen concentration increase within the root over the untreated control: 2.2%
  phosphorus concentration increase within the root over the untreated control: 4.2%
  phosphorus content within the vegetation versus untreated control: no difference
  potassium concentration increase within the root over the untreated control: 12.2%
[3]
  cobalt concentration in vegetative tissue after 6 days: consistent between the two treatments

## CC(=O)[O-].CC(=O)[O-].[Co+2] [cobalt acetate]
[1]; [4]
  increase in the vegetative N content: 1.7%
  increase in vegetative K concentration: 9.3%
[1]; vegetative tissue, 53 days
  tissue concentration increase Fe: 20.9%
  tissue concentration increase Mn: 37.5%
  tissue concentration increase Zn: 9.4%

## O=C([O-])[O-].[Co+2] [cobalt carbonate]
[1]; [4]
  increase in root mass: 6.7%
  vegetative wet weight: slight increase
